The target in one assay is MLL1-WRAD2 complex (Homo sapiens (Human), UniProt P61964). Kind of assay: MLL1-WRAD2 enzyme assay (in vitro methyl transferase assay). Type of assay: biochemical. To be noted: MLL1-WRAD2 assay; read-out: In vitro MLL1 activity (IC50). Here is the method: Reaction was initiated with 1 μM 3H-SAM and incubated for 1 hour at 30° C. Reaction mixture was transferred to P81 filter-paper and washed with PBS before detection.

Assay [1] concerns H3K4 dimethylation (H3K4me2) in T24 cells. Kind of assay: Detection of in-cell H3K4 dimethylation (AlphaLisa). To be noted: Homo sapiens, T-24, 120 h, five days. Format: cell-based. The protocol: T24 cells were seeded into a 96-well plate at 400 cells/well in 150 μl medium (McCoy 5A containing 10% FBS, 100 μg/ml Normocin, and 50 μg/ml Gentamycin, Invitrogen). A HP D300 digital dispenser was used to dose cells with DMSO or test compounds across a 10-point range of concentrations (high dose of 10 μM), and cultures were grown in a humidified 5% CO2 incubator at 37° C. After five days, plates were removed from incubator, media was aspirated, and the cells washed in PBS. Cell lysis, histone extraction, and detection of H3K4 dimethylation (H3K4me2) were performed using an AlphaLisa kit according to the manufacturer's instructions (Perkin Elmer). Signal was measured using an Envision plate reader.
For orientation: Alpha assays give light when donor and acceptor beads are brought close together.

In a further assay the test system is MV4-11 cells. In words: Cell proliferation assay (ATPlite). To be noted: Homo sapiens, MV4-11, 120 h; MV-411 cells, five days; read-out: In vitro whole cell potency in MV-411 cells, (IC50). Format: cell-based. Here is the method:
MV4-11 cells were seeded into a 96-well plate at 1,000 cells/well in 150 μl medium (Alpha-MEM containing 10% FBS, 100 μg/ml Normocin, and 50 μg/ml Gentamycin, Invitrogen). A HP D300 digital dispenser was used to dose cells with DMSO or test compounds across a 10-point range of concentrations (high dose of 10 μM), and cultures were grown in a humidified 5% CO2 incubator at 37° C. After five days, plates were removed from incubator and equilibrated to room temperature. An equal volume of ATPlite assay reagent was added to each well, and samples were processed according to manufacturer's instructions (Perkin Elmer). Luminescent signal was measured using an Envision plate reader equipped with a US-Luminescence detector.
A general note: In ATP-based viability assays light output follows the ATP content of the culture.

A further assay has as its target WDR5 protein (Homo sapiens (Human), UniProt P61964). Kind of assay: Surface Plasmon Resonance (SPR) assay. To be noted: SPR; for residence time: τ=1/koff, read-out: Residence Time (t, min). Type of assay: binding.
[2] abbreviates: Table 1, read-out: WDR5 binding affinity (KD).
Setting [3] is: Table 2, read-out: WDR5 binding affinity SPR (KD).

This note sets out measurements from patent US11174250B2, “Substituted carboxamides as inhibitors of WDR5 protein-protein binding” (PROPELLON THERAPEUTICS INC., priority 2016, dated 2021).

pIC50, pKd: −log10 of the molar value. Like-named read-outs stand apart in the source and are kept apart here.

As usually defined, the pIC50 is the negative decadic logarithm of the IC50, by convention in mol/L. A word on the pKd: it is the Kd on a negative log10 scale, so that one unit is a factor of ten. As a reminder, the residence time is how long the partners stay bound on average.

Procedure for WDR5 protein: Exemplary compounds of the application were dissolved in 100% DMSO at 10 mM, assayed fresh, and then stored at −20° C. for repeat studies and other experiments. Full length WDR5 with an N-terminal His tag and C-terminal AviTag (Avidity Inc.) was expressed in E. coli with coexpression of BirA to biotin label the protein in vivo. Purification was via Ni-NTA. The purified WDR5 protein has a molecular weight of 41976 Da.
SPR studies were performed using a Biacore™ T200 instrument (GE Health Sciences Inc.). Biotinylated WDR5 protein (approximately 3000RU) was stably captured to streptavidin coupled SA chips according to the manufacture's protocol (GE Health Sciences Inc.). The running buffer used was HBS-EP (20 mM Hepes pH 7.4, 150 mM NaCl, 3 mM EDTA, 0.05% P-20) plus 5% DMSO with a flow rate of 40p1/min. For SPR analysis, 5 different concentrations of each exemplary compound of the application were sprayed into 96 or 384 well plates using an HP D300 digital dispenser. […] Curve fitting and KD calculations were performed with the Biacore T200 Evaluation software (GE Health Sciences Inc).

For the compound `CN1CCN(c2ccc(-c3cc(CN4CCOCC4)ccc3F)cc2NC(=O)c2c[nH]c(=O)cc2C(F)(F)F)CC1` [Example 2, N-(2′-fluoro-4-(4-methylpiperazin-1-yl)-5′-(morpholinomethyl)-[1,1′-biphenyl]-3-yl)-6-oxo-4-(trifluoromethyl)-1,6-dihydropyridine-3-carboxamide], the results for the pIC50 (at MLL1-WRAD2 complex; in assay [1]; in the assay with MV4-11 cells) were 6.03, 6.02 and 6.20, respectively.
`CN1CCN(c2ccc(-c3cc(CN4CCOCC4)ccc3F)cc2NC(=O)c2c[nH]c(=O)cc2C(F)F)CC1` [Example 49, 4-(difluoromethyl)-N-(2′-fluoro-4-(4-methylpiperazin-1-yl)-5′-(morpholinomethyl)-[1,1′-biphenyl]-3-yl)-6-oxo-1,6-dihydropyridine-3-carboxamide]: the pKd on WDR5 protein (setting [2]) and on WDR5 protein (setting [3]) was 8.15 throughout. Besides, the residence time on WDR5 protein amounted to 3.89 min. Moreover, the negative-log IC50 (pIC50) on MLL1-WRAD2 complex was 5.80; in the assay with MV4-11 cells, 5.65.
Turning to `C[C@@H]1CN(c2ccc(-c3cc(OCC4CC4)ncc3F)cc2NC(=O)c2c[nH]c(=O)cc2C(F)(F)F)C[C@H](C)N1C` [Example 50, N-(5-(2-(cyclopropylmethoxy)-5-fluoropyridin-4-yl)-2-((3S,5R)-3,4,5-trimethylpiperazin-1-yl)phenyl)-6-oxo-4-(trifluoromethyl)-1,6-dihydropyridine-3-carboxamide], the negative logarithm of the Kd (pKd) on WDR5 protein (setting [2]) and at WDR5 protein (setting [3]) was 8.40 throughout. In addition, the residence time on WDR5 protein is 12.6 min. For the same compound, the negative-log IC50 (pIC50) on MLL1-WRAD2 complex is 5.75; with MV4-11 cells it was 6.03.
For `CN1CCN(c2ccc(-c3cc(CN(C)[C@H]4CCOC4)ccc3F)cc2NC(=O)c2c[nH]c(=O)cc2C(F)(F)F)CC1` [Example 76, (S)—N-(2′-fluoro-5′-((methyl(tetrahydrofuran-3-yl)amino)methyl)-4-(4-methylpiperazin-1-yl)-[1,1′-biphenyl]-3-yl)-6-oxo-4-(trifluoromethyl)-1,6-dihydropyridine-3-carboxamide], the pKd on WDR5 protein (setting [2]) and at WDR5 protein (setting [3]) was 8.26 each time. Also, the residence time at WDR5 protein was determined as 3.81 min. Besides, the pIC50 at MLL1-WRAD2 complex is 5.72; in the assay on MV4-11 cells it was 6.10.
As for `C[C@@H]1CN(c2ccc(-c3cc(CNC4CCCCC4)ccc3F)cc2NC(=O)c2c[nH]c(=O)cc2C(F)(F)F)C[C@H](C)N1C` [Example 45, N-(5′-((cyclohexylamino)methyl)-2′-fluoro-4-((3S,5R)-3,4,5-trimethylpiperazin-1-yl)-[1,1′-biphenyl]-3-yl)-6-oxo-4-(trifluoromethyl)-1,6-dihydropyridine-3-carboxamide], the pKd on WDR5 protein (setting [2]) and at WDR5 protein (setting [3]) was 8.70 in each case. Besides, the residence time on WDR5 protein stood at 31.9 min. Further, the negative-log IC50 (pIC50) on MLL1-WRAD2 complex is 6.29; in the assay with MV4-11 cells, 7.13.
Regarding `COCOc1cc(F)c(-c2ccc(N3CCN(C)CC3)c(NC(=O)c3c[nH]c(=O)cc3C(F)(F)F)c2)cc1C(=O)NC(C)(C)CC(C)(C)C` [Example 3, N-(2′-fluoro-4′-(methoxymethoxy)-4-(4-methylpiperazin-1-yl)-5′-((2,4,4-trimethylpentan-2-yl)carbamoyl)-[1,1′-biphenyl]-3-yl)-6-oxo-4-(trifluoromethyl)-1,6-dihydropyridine-3-carboxamide], the negative-log Kd (pKd) on WDR5 protein (setting [2]) and at WDR5 protein (setting [3]) was 7.96 throughout. Moreover, the residence time on WDR5 protein came out at 6.4 min. For the same compound, the values for the negative logarithm of the IC50 (pIC50) at MLL1-WRAD2 complex and with MV4-11 cells were 6.02 and 5.50, respectively.
On to `CN1CCN(c2ccc(-c3cc(CN(C)C4CCCCC4)ccc3F)cc2NC(=O)c2c[nH]c(=O)cc2C(F)(F)F)CC1` [Example 67, N-(5′-((cyclohexyl(methyl)amino)methyl)-2′-fluoro-4-(4-methylpiperazin-1-yl)-[1,1′-biphenyl]-3-yl)-6-oxo-4-(trifluoromethyl)-1,6-dihydropyridine-3-carboxamide], for which the pKd at WDR5 protein (setting [2]) and at WDR5 protein (setting [3]) was 8.49 throughout. Also, the residence time at WDR5 protein is 8.8 min. In addition, the negative-log IC50 (pIC50) was 5.94 at MLL1-WRAD2 complex and 6.53 with MV4-11 cells.
For the compound `C[C@@H]1CN(c2ccc(-c3cc(CN4CCOCC4)ccc3F)cc2NC(=O)c2c[nH]c(=O)cc2C(F)(F)F)C[C@H](C)N1C` [Example 27, N-(2′-fluoro-5′-(morpholinomethyl)-4-((3S,5R)-3,4,5-trimethylpiperazin-1-yl)-[1,1′-biphenyl]-3-yl)-6-oxo-4-(trifluoromethyl)-1,6-dihydropyridine-3-carboxamide], the pKd on WDR5 protein (setting [2]) and at WDR5 protein (setting [3]) was 8.10 throughout. Besides, the residence time on WDR5 protein stood at 5.84 min. The pIC50 on MLL1-WRAD2 complex is 6.28; in the assay on MV4-11 cells it was 6.13.
For the compound `C[C@@H]1CN(c2ccc(-c3cc(C(=O)Nc4ccccc4)ccc3F)cc2NC(=O)c2c[nH]c(=O)cc2C(F)(F)F)C[C@H](C)N1C` [Example 80, N-(2′-fluoro-5′-(phenylcarbamoyl)-4-((3S,5R)-3,4,5-trimethylpiperazin-1-yl)-[1,1′-biphenyl]-3-yl)-6-oxo-4-(trifluoromethyl)-1,6-dihydropyridine-3-carboxamide], the figures for the pKd at WDR5 protein (setting [2]) and at WDR5 protein (setting [3]) were 8.40 and 7.85, respectively. In addition, the residence time at WDR5 protein amounted to 2.18 min. For the same compound, the results for the negative-log IC50 (pIC50) on MLL1-WRAD2 complex and with MV4-11 cells were 5.40 and 5.66, respectively.
As for `C[C@@H]1CN(c2ccc(-c3cc(C(=O)NC4CCCCC4)ccc3F)cc2NC(=O)c2c[nH]c(=O)cc2C(F)(F)F)C[C@H](C)N1C` [Example 46, N-(5′-(cyclohexylcarbamoyl)-2′-fluoro-4-((3S,5R)-3,4,5-trimethylpiperazin-1-yl)-[1,1′-biphenyl]-3-yl)-6-oxo-4-(trifluoromethyl)-1,6-dihydropyridine-3-carboxamide], the pKd at WDR5 protein (setting [2]) and at WDR5 protein (setting [3]) was 9.02 throughout. Also, the residence time on WDR5 protein came to 74.4 min. In addition, the pIC50 was 6.54 on MLL1-WRAD2 complex and 6.93 in the assay on MV4-11 cells.
On to `CN1CCN(c2ccc(-c3cc(CN4C5COCC4C5)ccc3F)cc2NC(=O)c2c[nH]c(=O)cc2C(F)(F)F)CC1` [Example 74, N-(5′-(3-oxa-6-azabicyclo[3.1.1]heptan-6-ylmethyl)-2′-fluoro-4-(4-methylpiperazin-1-yl)-[1,1′-biphenyl]-3-yl)-6-oxo-4-(trifluoromethyl)-1,6-dihydropyridine-3-carboxamide], for which the negative-log Kd (pKd) on WDR5 protein (setting [2]) and at WDR5 protein (setting [3]) was 8.32 in each case. The values for the pIC50 on MLL1-WRAD2 complex and in the assay with MV4-11 cells were 5.76 and 5.27, respectively.
Turning to `CN1CCN(c2ccc(-c3cc(CNC4CCCCC4)ccc3F)cc2NC(=O)c2c[nH]c(=O)cc2C(F)(F)F)CC1` [Example 7, N-(5′-((cyclohexylamino)methyl)-2′-fluoro-4-(4-methylpiperazin-1-yl)-[1,1′-biphenyl]-3-yl)-6-oxo-4-(trifluoromethyl)-1,6-dihydropyridine-3-carboxamide], the negative logarithm of the Kd (pKd) at WDR5 protein (setting [2]) and on WDR5 protein (setting [3]) was 8.40 each time. In addition, on WDR5 protein, the residence time was 7.88 min. The pIC50 was 6.67 on MLL1-WRAD2 complex and 6.39 in the assay with MV4-11 cells.
Regarding `CN1CCN(c2ccc(-c3cc(CN4CCN(CC5CC5)CC4)ccc3F)cc2NC(=O)c2c[nH]c(=O)cc2C(F)(F)F)CC1` [Example 66, N-(5′-((4-(cyclopropylmethyl)piperazin-1-yl)methyl)-2′-fluoro-4-(4-methylpiperazin-1-yl)-[1,1′-biphenyl]-3-yl)-6-oxo-4-(trifluoromethyl)-1,6-dihydropyridine-3-carboxamide], the negative-log Kd (pKd) at WDR5 protein (setting [2]) and at WDR5 protein (setting [3]) was 8.14 in each case. Further, the residence time on WDR5 protein came to 3.79 min. Besides, the values for the pIC50 on MLL1-WRAD2 complex and in the assay on MV4-11 cells were 5.96 and 5.95, respectively.
